Numbered stars: 1 amine (or outer) side, 2 acyl side, 3 side chain; on linkers, the order of the positions; unused ones are H or OH. Bridge positions count the residues as written; N and C are the ends. Square brackets hold non-standard residues; d marks the D form. Peptide text beside a SMILES is read from it. * marks the point of attachment. C20 diacid = O=C(O)CCCCCCCCCCCCCCCCCCC(=O)*; γGlu = O=C(O)[C@H](CCC(=O)[*:2])N[*:1]; Hyp = O=C(O)[C@@H]1C[C@@H](O)CN1; NMeI = CC[C@H](C)[C@H](NC)C(=O)O; Aad = N[C@@H](CCCC(=O)O)C(=O)O; Orn = NCCC[C@H](N)C(=O)O; Sar = CNCC(=O)O
Legend:
[1] = target: T1, recombinant human calcitonin receptor (hCT-R) (Homo sapiens, UniProt P30988); assay: hCT-R cAMP assay (AlphaScreen) in 1321N1 cells; assay type: cell-based; conditions: cAMP formation, 45 min stimulation
T1 construct: host or cells: human astrocytoma cell line 1321N1
T1 sequence (P30988 25-474): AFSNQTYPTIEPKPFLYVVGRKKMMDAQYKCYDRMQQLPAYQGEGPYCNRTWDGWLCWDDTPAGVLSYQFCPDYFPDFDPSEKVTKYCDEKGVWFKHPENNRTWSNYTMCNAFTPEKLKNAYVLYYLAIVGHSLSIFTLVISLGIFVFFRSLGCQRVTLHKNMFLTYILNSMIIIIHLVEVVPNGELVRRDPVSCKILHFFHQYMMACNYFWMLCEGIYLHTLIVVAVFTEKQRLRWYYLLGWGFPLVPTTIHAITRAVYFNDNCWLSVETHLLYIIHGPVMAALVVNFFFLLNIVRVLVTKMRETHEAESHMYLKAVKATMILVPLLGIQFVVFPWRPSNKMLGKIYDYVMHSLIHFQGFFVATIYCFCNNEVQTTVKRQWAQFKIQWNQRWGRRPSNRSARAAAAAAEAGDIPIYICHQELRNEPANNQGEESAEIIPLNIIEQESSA
Method in brief: (§1)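 1321N1 astrocytoma cells expressing recombinant human calcitonin receptor alone or with RAMP3 (AMY3) stimulated 45 min at room temperature with peptide in IBMX-containing buffer. cAMP quantified by AlphaScreen after 1 h bead incubation; EC50 fitted from at least 7 concentrations.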

[2] = Assessment of physical stability: fibril formation by Thioflavin T fluorescence; assay type: physicochemical; design: key: FND = fibrillation not detected; FD = fibrillation detected; conditions: 1 mg/mL peptide; for Fibrillation (in buffer) pH4 acetate: 50 mM acetate buffer pH 4.0, 96 hours at 40° C.; for Fibrillation (in buffer) pH7 histidine: 50 mM histidine buffer pH 7.0, 96 hours at 40° C.; for Fibrillation (in buffer) pH7 phosphate: 50 mM phosphate buffer pH 7.0, 96 hours at 40° C.
Method: Solutions containing (i) 1 mg/mL of test peptide, 40 μM ThT and 50 mM phosphate (Ph) buffer (pH 7.0), (ii) 1 mg/mL of test peptide, 40 μM ThT and 50 mM histidine (His) buffer (pH 7.0), and (iii) 1 mg/mL of test peptide, 40 μM ThT and 50 mM acetate (Ac) buffer (pH 4.0), were loaded in a 96-well black fluorescence plate (clear bottom) in triplicate. Data were collected at fixed intervals of 10 min, each preceded by 300 s of automixing (agitation), over a period of 96 hours at 40° C. Physical stability is determined by measuring the fluorescence intensity over time. A significant increase in intensity is rated as fibrillation detected (FD).

[3] = target: T2, recombinant human amylin 3 receptor (hAMYR3) (Homo sapiens, UniProt O60896+P30988); assay: hAMYR3 cAMP assay (AlphaScreen) in 1321N1 cells; assay type: cell-based; conditions: cAMP formation, 45 min stimulation
T2 construct: host or cells: human astrocytoma cell line 1321N1
T2 sequence (P30988 25-474): T1 sequence (P30988 25-474)
T2 sequence (O60896 24-148 partner): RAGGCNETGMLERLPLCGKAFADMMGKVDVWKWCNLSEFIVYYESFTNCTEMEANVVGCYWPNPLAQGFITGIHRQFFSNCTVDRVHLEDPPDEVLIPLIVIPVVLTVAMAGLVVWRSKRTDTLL
Method in brief: as §1

[4] = Assessment of chemical stability in 40 mM buffers at 40° C. (RP-HPLC); assay type: physicochemical; conditions: 1 mg/mL; for % degradation after 72 h at 40° C. pH4 acetate: acetate buffer pH 4, 72 h; for % degradation after 72 h at 40° C. pH6 phosphate: phosphate buffer pH 6, 72 h; for % degradation after 72 h at 40° C. pH7 phosphate: phosphate buffer pH 7, 72 h
Method in brief: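 Peptides at 1 mg/mL in 40 mM acetate pH 4 or phosphate pH 6 and 7 were held at 40° C for 3 and 14 days. Main-peak area-% by C8 RP-HPLC, UV 220 nm; % degradation = change in main-peak area-% versus t=0.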

SMILES | EC50 [1] [nM] | Fibrillation (in buffer) pH4 acetate [2] | Fibrillation (in buffer) pH7 histidine [2] | Fibrillation (in buffer) pH7 phosphate [2] | EC50 [3] [nM] | % degradation after 72 h at 40° C. pH4 acetate [4] [%] | % degradation after 14 days at 40° C. pH4 acetate ([4]; acetate buffer pH 4, 14 days) [%] | % degradation after 72 h at 40° C. pH6 phosphate [4] [%] | % degradation after 14 days at 40° C. pH6 phosphate ([4]; phosphate buffer pH 6, 14 days) [%] | % degradation after 72 h at 40° C. pH7 phosphate [4] [%] | % degradation after 14 days at 40° C. pH7 phosphate ([4]; phosphate buffer pH 7, 14 days) [%]
CC[C@H](C)[C@@H](C(=O)N[C@@H](CC(C)C)C(=O)N[C@@H](CO)C(=O)N[C@@H](CO)C(=O)N[C@H](C(=O)N[C@@H](CCC(=O)O)C(=O)N[C@H](C(=O)NCC(=O)N[C@@H](CO)C(=O)N[C@@H](CC(N)=O)C(=O)N[C@H](C(=O)N1C[C@H](O)C[C@H]1C(N)=O)[C@@H](C)O)C(C)C)[C@@H](C)O)N(C)C(=O)[C@H](C)NC(=O)CN(C)C(=O)[C@H](Cc1ccccc1)NC(=O)[C@H](CO)NC(=O)[C@H](CO)NC(=O)[C@H](CCCNC(=N)N)NC(=O)[C@H](CCC(N)=O)NC(=O)[C@H](CC(C)C)NC(=O)[C@H](Cc1ccccc1)NC(=O)[C@H](CCCNC(=N)N)NC(=O)[C@H](C)NC(=O)[C@H](CC(C)C)NC(=O)[C@H](CCCNC(=N)N)NC(=O)[C@H](CCC(=O)O)NC(=O)[C@@H](NC(=O)[C@H](C)NC(=O)[C@@H]1CCCNC(=O)C[C@H](NC(=O)[C@H](CCCNC(=N)N)NC(=O)CC[C@H](NC(=O)CCCCCCCCCCCCCCCCCCC(=O)O)C(=O)O)C(=O)NCC(=O)N[C@@H]([C@@H](C)O)C(=O)N[C@@H](C)C(=O)N[C@@H]([C@@H](C)O)C(=O)N1)[C@@H](C)O [Compound 10, [19CD]-isoGlu-RD()GTAT-Orn()-ATERLARFLQRSSF-Gly(Me)-A-Ile(Me)-LSSTEVGSNT-Hyp-NH2] ({C20 diacid-γGlu}-RDGTAT[Orn]ATERLARFLQRSSF[Sar]A[NMeI]LSSTEVGSNT[Hyp]-NH2; lactam 2-7) | 0.345 | FD | FND | FND | 0.068 | <1 | 1.9 | <1 | 1.8 | <1 | 9.1
CC[C@H](C)[C@@H](C(=O)N[C@@H](CC(C)C)C(=O)N[C@@H](CO)C(=O)N[C@@H](CO)C(=O)N[C@H](C(=O)N[C@@H](CCC(=O)O)C(=O)N[C@H](C(=O)NCC(=O)N[C@@H](CO)C(=O)N[C@@H](CC(N)=O)C(=O)N[C@H](C(=O)N1C[C@H](O)C[C@H]1C(N)=O)[C@@H](C)O)C(C)C)[C@@H](C)O)N(C)C(=O)[C@H](C)NC(=O)CN(C)C(=O)[C@H](Cc1ccccc1)NC(=O)[C@H](CO)NC(=O)[C@H](CO)NC(=O)[C@H](CCCNC(=N)N)NC(=O)[C@H](CCC(N)=O)NC(=O)[C@H](CC(C)C)NC(=O)[C@H](Cc1ccccc1)NC(=O)[C@H](Cc1c[nH]cn1)NC(=O)[C@H](C)NC(=O)[C@H](CC(C)C)NC(=O)[C@H](CCCNC(=N)N)NC(=O)[C@H](CCC(=O)O)NC(=O)[C@@H](NC(=O)[C@H](C)NC(=O)[C@@H]1CCCCNC(=O)C[C@H](NC(=O)[C@H](CCC(=O)O)NC(=O)CC[C@H](NC(=O)CCCCCCCCCCCCCCCCCCC(=O)O)C(=O)O)C(=O)NCC(=O)N[C@@H]([C@@H](C)O)C(=O)N[C@@H](C)C(=O)N[C@@H]([C@@H](C)O)C(=O)N1)[C@@H](C)O [Compound 11, [19CD]-isoGlu-ED()GTATK()ATERLAHFLQRSSF-Gly(Me)-A-Ile(Me)-LSSTEVGSNT-Hyp-NH2] ({C20 diacid-γGlu}-EDGTATKATERLAHFLQRSSF[Sar]A[NMeI]LSSTEVGSNT[Hyp]-NH2; lactam 2-7) | 0.068 | FND | FND | FND | 0.024 | <1 |  | <1 |  | <1 | 
CC[C@H](C)[C@@H](C(=O)N1CCC[C@H]1C(=O)N[C@@H](CO)C(=O)N[C@@H](CO)C(=O)N[C@H](C(=O)N[C@@H](CCC(=O)O)C(=O)N[C@H](C(=O)NCC(=O)N[C@@H](CO)C(=O)N[C@@H](CC(N)=O)C(=O)N[C@H](C(=O)N1C[C@H](O)C[C@H]1C(N)=O)[C@@H](C)O)C(C)C)[C@@H](C)O)N(C)C(=O)[C@H](C)NC(=O)CN(C)C(=O)[C@H](Cc1ccccc1)NC(=O)[C@H](CO)NC(=O)[C@H](CO)NC(=O)[C@H](CCCNC(=N)N)NC(=O)[C@H](CCC(N)=O)NC(=O)[C@H](CC(C)C)NC(=O)[C@H](Cc1ccccc1)NC(=O)[C@H](Cc1c[nH]cn1)NC(=O)[C@H](C)NC(=O)[C@H](CC(C)C)NC(=O)[C@H](CCCNC(=N)N)NC(=O)[C@H](CCC(=O)O)NC(=O)[C@@H](NC(=O)[C@H](C)NC(=O)[C@@H]1CCCCNC(=O)C[C@H](NC(=O)[C@H](CCCNC(=N)N)NC(=O)CC[C@H](NC(=O)CCCCCCCCCCCCCCCCCCC(=O)O)C(=O)O)C(=O)NCC(=O)N[C@@H]([C@@H](C)O)C(=O)N[C@@H](C)C(=O)N[C@@H]([C@@H](C)O)C(=O)N1)[C@@H](C)O [Compound 17, [19CD]-isoGlu-RD()GTATK()ATERLAHFLQRSSF-Gly(Me)-A-Ile(Me)-PSSTEVGSNT-Hyp-NH2] ({C20 diacid-γGlu}-RDGTATKATERLAHFLQRSSF[Sar]A[NMeI]PSSTEVGSNT[Hyp]-NH2; lactam 2-7) | 0.058 | FND | FND | FND | 0.025 | 1.2 |  | <1 |  | <1 | 
CC[C@H](C)[C@@H](C(=O)N1CCC[C@H]1C(=O)N[C@@H](CO)C(=O)N[C@@H](CO)C(=O)N[C@H](C(=O)N[C@@H](CCC(=O)O)C(=O)N[C@H](C(=O)NCC(=O)N[C@@H](CO)C(=O)N[C@@H](CC(N)=O)C(=O)N[C@H](C(=O)N1C[C@H](O)C[C@H]1C(N)=O)[C@@H](C)O)C(C)C)[C@@H](C)O)N(C)C(=O)[C@H](C)NC(=O)CN(C)C(=O)[C@H](Cc1ccccc1)NC(=O)[C@H](CO)NC(=O)[C@H](CO)NC(=O)[C@H](CCCNC(=N)N)NC(=O)[C@H](CCC(N)=O)NC(=O)[C@H](CC(C)C)NC(=O)[C@H](Cc1ccccc1)NC(=O)[C@H](CCCC(=O)O)NC(=O)[C@H](C)NC(=O)[C@H](CC(C)C)NC(=O)[C@H](CCCNC(=N)N)NC(=O)[C@H](CCC(=O)O)NC(=O)[C@@H](NC(=O)[C@H](C)NC(=O)[C@@H]1CCCNC(=O)C[C@H](NC(=O)[C@H](CCCNC(=N)N)NC(=O)CC[C@H](NC(=O)CCCCCCCCCCCCCCCCCCC(=O)O)C(=O)O)C(=O)NCC(=O)N[C@@H]([C@@H](C)O)C(=O)N[C@@H](C)C(=O)N[C@@H]([C@@H](C)O)C(=O)N1)[C@@H](C)O [Compound 21, [19CD]-isoGlu-RD()GTAT-Orn()-ATERLA-Aad-FLQRSSF-Gly(Me)-A-Ile(Me)-PSSTEVGSNT-Hyp-NH2] ({C20 diacid-γGlu}-RDGTAT[Orn]ATERLA[Aad]FLQRSSF[Sar]A[NMeI]PSSTEVGSNT[Hyp]-NH2; lactam 2-7) | 0.037 | FND | FND | FND | 0.01 | <1 |  | <1 |  | <1 | 

Source: US11382956B2, “Amylin analogues” (Zealand Pharma A/S, priority 2016, dated 2022)
